Values of other authors as cited in Sander's compilation of Henry's law constants.
Values joined by “and” are separate entries in the source; they are usually repeats but may differ in a detail not shown here. Equal entries are not always repeated. Values belong to the compound of their own block, whether it stands above or below them.

Assay: Henry solubility constant Hcp at 298.15 K (mol/(m3 Pa))
Conditions: cited value
[1] = reference: Barcelo and Hennion (1997)
[2] = reference: Burkholder et al. (2015)
[3] = reference: Burkholder et al. (2019)
[4] = reference: Sander et al. (2006)
[5] = reference: Sander et al. (2011)
[6] = reference: Plyasunov et al. (2006)
[7] = reference: Fogg and Sangster (2003)
[8] = reference: Gaffney and Senum (1984)
[9] = reference: Kuramochi et al. (2004)
[10] = reference: Lindqvist and Rodhe (1985)

SMILES: COc1nc(NC(C)C)nc(NC(C)C)n1 [prometone]
Henry solubility constant Hcp [1]: 110

SMILES: O=S=O [sulfur dioxide]
Henry solubility constant Hcp (reference: Beilke and Gravenhorst (1978)): 0.012
Henry solubility constant Hcp [2]: 0.013
Henry solubility constant Hcp [3]: 0.013
Henry solubility constant Hcp (reference: Edwards et al. (1978)): 0.012
Henry solubility constant Hcp (reference: Maahs (1982)): 0.012
Henry solubility constant Hcp (reference: Pandis and Seinfeld (1989)): 0.012
Henry solubility constant Hcp (reference: Rodríguez-Sevilla et al. (2001)): 0.012
Henry solubility constant Hcp [4]: 0.013
Henry solubility constant Hcp [5]: 0.013
Henry solubility constant Hcp (reference: Yoo et al. (1986)): 0.012
Henry solubility constant Hcp (reference: Young (1983)): 0.013

Henry solubility constant Hcp (reference: Brockbank (2013)): 0.013
SMILES: CC(C)CC(=O)CC(C)C [2,6-dimethyl-4-heptanone]

SMILES: N#CCCCC#N [pentanedinitrile]
Henry solubility constant Hcp [6]: 780

SMILES: c1ccc2c(c1)-c1cccc3cccc-2c13 [benzo[jk]fluorene]
Henry solubility constant Hcp (reference: Brockbank (2013)): 0.7
Henry solubility constant Hcp [7]: 0.54
Henry solubility constant Hcp (reference: Petrasek et al. (1983)): 0.99

SMILES: CCN [ethanamine]
Henry solubility constant Hcp (reference: Brockbank (2013)): 0.84
Henry solubility constant Hcp [2]: 0.8
Henry solubility constant Hcp [3]: 0.8

Henry solubility constant Hcp (reference: Brockbank (2013)): 0.00029
SMILES: C1=CCCCC1 [cyclohexene]

SMILES: CC(C)NC(=O)N1CC(=O)N(c2cc(Cl)cc(Cl)c2)C1=O [iprodione]
Henry solubility constant Hcp [1]: 710

SMILES: Clc1cccc(Cl)c1 [1,3-dichlorobenzene]
Henry solubility constant Hcp (reference: Brockbank (2013)): 0.0031
Henry solubility constant Hcp [7]: 0.0034
Henry solubility constant Hcp (reference: Goldstein (1982)): 0.0039

SMILES: FN(F)F [nitrogen trifluoride]
Henry solubility constant Hcp [2]: 7.9e-06
Henry solubility constant Hcp [3]: 7.9e-06
Henry solubility constant Hcp [5]: 7.9e-06

SMILES: Cc1ccc(N)c(C)c1 [2,4-dimethylbenzenamine]
Henry solubility constant Hcp (reference: Brockbank (2013)): 2.8

SMILES: CCCNCCC [dipropylamine]
Henry solubility constant Hcp (reference: Brockbank (2013)): 0.21
Henry solubility constant Hcp [2]: 0.2
Henry solubility constant Hcp [3]: 0.2

SMILES: Cc1cccc(C=O)c1 [3-methylbenzaldehyde]
Henry solubility constant Hcp (reference: Brockbank (2013)): 0.35

SMILES: CC(O)CO (configuration not stated) [1,2-propanediol]
Henry solubility constant Hcp [2]: 2700
Henry solubility constant Hcp [3]: 2700

Henry solubility constant Hcp (reference: Goldstein (1982)): 9.8
SMILES: O=[N+]([O-])c1ccc(O)cc1 [4-nitrophenol]

SMILES: Cc1[nH]c(=O)n(C(C)(C)C)c(=O)c1Cl [terbacil]
Henry solubility constant Hcp [1]: 550

SMILES: CCc1cccc(C)c1N(C(=O)CCl)C(C)COC (configuration not stated) [metolachlor]
Henry solubility constant Hcp [1]: 11
Henry solubility constant Hcp [7]: 620
Henry solubility constant Hcp (reference: Muir et al. (2004)): 750 and 720
Henry solubility constant Hcp (reference: Rice et al. (1997b)): 1200

SMILES: O=C1C2CC=CCC2C(=O)N1SC(Cl)(Cl)Cl (configuration not stated) [captan]
Henry solubility constant Hcp [1]: 0.016

SMILES: CC(=O)C(=O)O [2-oxopropanoic acid]
Henry solubility constant Hcp [2]: 3100
Henry solubility constant Hcp [3]: 3100
Henry solubility constant Hcp [4]: 3100
Henry solubility constant Hcp [5]: 3100

SMILES: CCc1ccc2ccccc2c1 [2-ethylnaphthalene]
Henry solubility constant Hcp (reference: Mackay et al. (1992b)): 0.013

SMILES: CCO [ethanol]
Henry solubility constant Hcp (reference: Brockbank (2013)): 1.8
Henry solubility constant Hcp [2]: 1.9
Henry solubility constant Hcp [3]: 1.9
Henry solubility constant Hcp (reference: Dohnal et al. (2006)): 1.8
Henry solubility constant Hcp (reference: Dubowski (1979)): 1.9
Henry solubility constant Hcp [7]: 1.7
Henry solubility constant Hcp [8]: 2
Henry solubility constant Hcp [4]: 2
Henry solubility constant Hcp [5]: 1.9
Henry solubility constant Hcp (reference: Schaffer and Daubert (1969)): 1.5
Henry solubility constant Hcp (reference: Timmermans (1960)): 1.6
Henry solubility constant Hcp (reference: Warneck (2006)): 1.9

SMILES: CCCCO[N+](=O)[O-] [1-butyl nitrate]
Henry solubility constant Hcp [2]: 0.01
Henry solubility constant Hcp [3]: 0.01
Henry solubility constant Hcp [4]: 0.01
Henry solubility constant Hcp [5]: 0.01

Henry solubility constant Hcp (reference: MacBean (2012b)): 47
SMILES: Cc1c(Br)c2ccc(F)cc2n1S(=O)(=O)c1ncn(S(=O)(=O)N(C)C)n1 [amisulbrom]

Henry solubility constant Hcp (reference: Howard and Meylan (1997)): 0.12
SMILES: CCOCCOCC [1,2-diethoxyethane]

SMILES: CCCCCCCCSC(=O)Oc1cc(Cl)nnc1-c1ccccc1 [pyridate]
Henry solubility constant Hcp [1]: 300

SMILES: FN(F)N(F)F [dinitrogen tetrafluoride]
Henry solubility constant Hcp [2]: 8.4e-06
Henry solubility constant Hcp [3]: 8.4e-06
Henry solubility constant Hcp [5]: 8.4e-06

SMILES: ClN(Cl)Cl [nitrogen trichloride]
Henry solubility constant Hcp [2]: 0.00099
Henry solubility constant Hcp [3]: 0.00099
Henry solubility constant Hcp [4]: 0.00099
Henry solubility constant Hcp [5]: 0.00099

Henry solubility constant Hcp (reference: Brockbank (2013)): 0.026
SMILES: CCCCOC=O [butyl methanoate]

Henry solubility constant Hcp (reference: Brockbank (2013)): 13
Henry solubility constant Hcp [8]: 9.9
Henry solubility constant Hcp (reference: Howard (1989)): 10
SMILES: Cc1ccc(O)cc1 [1-hydroxy-4-methylbenzene]

SMILES: Oc1ccccc1Cl [2-hydroxychlorobenzene]
Henry solubility constant Hcp (reference: Goldstein (1982)): 1.2
Henry solubility constant Hcp (reference: Howard (1989)): 18

Henry solubility constant Hcp (reference: Brockbank (2013)): 6.7
SMILES: Cc1cccc(O)c1C [1-hydroxy-2,3-dimethylbenzene]

SMILES: CCCCI [1-iodobutane]
Henry solubility constant Hcp (reference: Brockbank (2013)): 0.00069

SMILES: O=C(O)C(Br)(Br)Br [tribromoethanoic acid]
Henry solubility constant Hcp [2]: 3000
Henry solubility constant Hcp [3]: 3000
Henry solubility constant Hcp [5]: 3000

SMILES: O=CC(=O)O [oxoethanoic acid]
Henry solubility constant Hcp [5]: 110

SMILES: FC(F)F [trifluoromethane]
Henry solubility constant Hcp [2]: 0.00013
Henry solubility constant Hcp [3]: 0.00013
Henry solubility constant Hcp [5]: 0.00013

SMILES: Cc1ccc(NC(=O)N(C)C)cc1Cl [chlortoluron]
Henry solubility constant Hcp [1]: 190

SMILES: OCC(F)(F)C(F)F [2,2,3,3-tetrafluoro-1-propanol]
Henry solubility constant Hcp [2]: 1.4
Henry solubility constant Hcp [3]: 1.4
Henry solubility constant Hcp [5]: 1.4

SMILES: N#Cc1c(Cl)c(Cl)c(Cl)c(C#N)c1Cl [2,4,5,6-tetrachloro-1,3-dicyanobenzene]
Henry solubility constant Hcp (reference: MacBean (2012b)): 39

Henry solubility constant Hcp (reference: Brockbank (2013)): 0.0029
SMILES: Cc1ccc(C)c(C)c1C [1,2,3,4-tetramethylbenzene]

Henry solubility constant Hcp (reference: Goldstein (1982)): 37
SMILES: c1ccc2ncccc2c1 [benzo[b]pyridine]

SMILES: Brc1ccc(Br)c(Br)c1 [1,2,4-tribromobenzene]
Henry solubility constant Hcp [9]: 0.029

Henry solubility constant Hcp (reference: Brockbank (2013)): 0.0002
SMILES: C1=CCCC1 [cyclopentene]

SMILES: Cc1cccc(C)c1 [1,3-dimethylbenzene]
Henry solubility constant Hcp (reference: Brockbank (2013)): 0.0015

SMILES: [Cl][Hg][Cl] [mercury dichloride]
Henry solubility constant Hcp (reference: Kanefke (2008)): 13000
Henry solubility constant Hcp [10]: 14000
Henry solubility constant Hcp (reference: Shon et al. (2005)): 240000
Henry solubility constant Hcp (reference: WHO (1990)): 14000

SMILES: O=C(F)Cl [carbonic chloride fluoride]
Henry solubility constant Hcp (reference: George et al. (1993)): 0.099

Henry solubility constant Hcp (reference: Brockbank (2013)): 0.98
SMILES: Cc1ccccn1 [2-methylpyridine]

Henry solubility constant Hcp (reference: Brockbank (2013)): 0.025
Henry solubility constant Hcp (reference: Meynier et al. (2003)): 0.025
SMILES: CCCCCOC(C)=O [pentyl ethanoate]

SMILES: BrC(Br)Br [tribromomethane]
Henry solubility constant Hcp (reference: Brockbank (2013)): 0.018
Henry solubility constant Hcp [2]: 0.017
Henry solubility constant Hcp [3]: 0.017
Henry solubility constant Hcp (reference: Goldstein (1982)): 0.018
Henry solubility constant Hcp (reference: Nicholson et al. (1984)): 0.017
Henry solubility constant Hcp [4]: 0.017
Henry solubility constant Hcp [5]: 0.017

Henry solubility constant Hcp (reference: Brockbank (2013)): 0.026
SMILES: COC(=O)C(C)C [methyl 2-methylpropanoate]

Henry solubility constant Hcp (reference: Brockbank (2013)): 15
SMILES: Cc1cc(C)cc(O)c1 [1-hydroxy-3,5-dimethylbenzene]

SMILES: COC(=O)C(F)(F)F [trifluoroethanoic acid, methyl ester]
Henry solubility constant Hcp [2]: 0.0011
Henry solubility constant Hcp [3]: 0.0011
Henry solubility constant Hcp [5]: 0.0011

SMILES: CN(Cl)Cl [N,N-dichloromethylamine]
Henry solubility constant Hcp [2]: 0.0033
Henry solubility constant Hcp [3]: 0.0033

Henry solubility constant Hcp (reference: Brockbank (2013)): 0.34
SMILES: CCCCCCCCO [1-octanol]

Henry solubility constant Hcp (reference: Brockbank (2013)): 3.9
SMILES: CCOC(=O)CC(=O)OCC [propanedioic acid, diethyl ester]

SMILES: II [iodine (molecular)]
Henry solubility constant Hcp (reference: Berdnikov and Bazhin (1970)): 0.031
Henry solubility constant Hcp (reference: Palmer et al. (1985)): 0.03
Henry solubility constant Hcp (reference: Thompson and Zafiriou (1983)): 0.011

Henry solubility constant Hcp (reference: Brockbank (2013)): 0.32
SMILES: CCCCC(O)CC (configuration not stated) [3-heptanol]

SMILES: [Hg+2].[OH-].[OH-] [mercury dihydroxide]
Henry solubility constant Hcp [10]: 130
Henry solubility constant Hcp (reference: WHO (1990)): 130

SMILES: CC(CCl)OC(C)CCl (configuration not stated) [bis-(2-chloroisopropyl) ether]
Henry solubility constant Hcp (reference: Goldstein (1982)): 0.065 and 0.064

SMILES: Cc1cc2ccccc2cc1C [2,3-dimethylnaphthalene]
Henry solubility constant Hcp (reference: Meylan and Howard (1991)): 0.011

SMILES: Cc1ccc(N=CN(C)C=Nc2ccc(C)cc2C)c(C)c1 [amitraz]
Henry solubility constant Hcp (reference: MacBean (2012b)): 1

SMILES: O=C1c2ccccc2C(=O)N1SC(Cl)(Cl)Cl [folpet]
Henry solubility constant Hcp [1]: 0.026

SMILES: CC(C)C#N [2-methylpropanenitrile]
Henry solubility constant Hcp (reference: Brockbank (2013)): 0.11
Henry solubility constant Hcp [6]: 0.1

SMILES: COC(=O)c1ccccc1S(=O)(=O)NC(=O)N(C)c1nc(C)nc(OC)n1 [tribenuron-methyl]
Henry solubility constant Hcp (reference: MacBean (2012b)): 9.7e+07

SMILES: OCOO [hydroxymethyl hydroperoxide]
Henry solubility constant Hcp [2]: 17000
Henry solubility constant Hcp [3]: 17000
Henry solubility constant Hcp [4]: 17000
Henry solubility constant Hcp [5]: 17000

SMILES: Brc1ccc(Br)cc1 [1,4-dibromobenzene]
Henry solubility constant Hcp [9]: 0.011

Henry solubility constant Hcp (reference: Brockbank (2013)): 1.6
SMILES: Cc1ccncc1 [4-methylpyridine]

SMILES: O=C(NC(=O)c1c(F)cccc1F)Nc1ccc(Cl)cc1 [diflubenzuron]
Henry solubility constant Hcp [1]: 21
